Results: publication PMC12948223, “HSP70 Interactome‐Mediated Proteolysis Targeting Chimera (HSP70‐PROTAC) for Ferroptosis‐Driven Cancer Treatment” (Advanced Science, 2025)
Like-named read-outs stand apart in the source and are kept apart here.

What was measured:
ferroptosis = test system: ferroptosis; parameters: method as in PMID 34506134, PMID 35648631; conditions: cited from earlier work
Hsc70 = target: Hsc70; parameters: method as in PMID 18729127; conditions: cited from earlier work
HT1080 xenograft tumor = HT1080 xenograft tumor mouse model, antitumor efficacy and safety; type: in vivo; conditions: 30 mg/kg IP once daily
Experimental: Motivated by the aforementioned in vitro findings, we subsequently sought to evaluate the in vivo antitumor efficacy of GDAz‐3 using an HT1080 xenograft tumor mouse model. The tumor‐bearing mice were randomly divided into six groups, minimizing weight and tumor size differences among the groups (n = 6 in each group). The treatment group mice were administered once daily by intraperitoneal injection (IP) with GDAz‐3 at a dosage of 30 or 60 mg kg^−1, while the control group animals were treated with the corresponding solvent, ML162, and apoptozole at a dosage of 30 mg kg^−1. Additionally, we set up a drug combination group to confirm the superiority of GDAz‐3. After treatment for 17 days, animals were humanely euthanized and the tumors were excised (Figure 7B). […] The advantage of the safety of GDAz‐3 was also determined by the hematoxylin and eosin (H&E) staining. […] In general, compared with the single inhibitor or their combination, the in vivo antitumor study confirmed the efficacy and safety of GDAz‐3.
The experimental procedures of the animal experiments were permitted by the Hangzhou Institute of Medicine (HIM), Chinese Academy of Sciences (AP2024‐07‐0010). Male BALB/c nude mice (6 weeks old) were housed under pathogen‐free conditions, maintained at a constant room temperature, and fed standard rodent chow and water. An HT1080 fibrosarcoma xenograft model in nude mice was established through subcutaneous transplantation. When the tumors emerged, the mice were randomly divided into six groups with six mice in each group: GDAz‐3‐treated at 30 or 60 mg kg^−1 group and control groups, including the vehicle group, and each of the two inhibitor‐treated groups (ML162 and apoptozole) at 30 mg kg^−1, and their combinations. The mice were intraperitoneally (IP) injected daily according to their body weight. Body weight and tumor size were measured every other day, and the tumor volume and body weight were recorded every other day after drug treatment. After treatment, the animals were euthanized by cervical dislocation, and the tumor bulks were peeled off and weighed. The organ tissues (tumor, heart, liver, spleen, lung, and kidney) were harvested and fixed with 4% paraformaldehyde for hematoxylin‐eosin (H&E) and immunohistochemistry (IHC) staining. In addition, the expression of GPX4 in tumor samples was analyzed in vehicle‐ and GDAz‐3‐treated groups by western blot assay.

Hsp70 = target: Hsp70; parameters: method as in PMID 18729127; conditions: cited from earlier work
HT1080 cells [1] = assay: Cell viability CCK-8 assay; type: cell-based, human; conditions: CCK-8, 48 h, read-out: IC50 (cytotoxicity)
Experimental: To determine whether GPX4 degradation following treatment with HSP70‐PROTACs triggers cancer cell ferroptosis, we initially assessed the viability of HT1080 cells using the CCK‐8 assay after treatment with various concentrations of the tested compounds for 48 h. GPX4 inhibitor ML162, HSP70 inhibitor apoptozole, and two GPX4 non‐degradable HSP70‐PROTAC molecules, GDAz‐Neg1 and GDAz‐Neg2, were selected as controls. […] This remarkable activity might partly be ascribed to the high cell permeability conferred by the piperazine ring. […] We speculated that the potent anti‐proliferative activity of GDAz‐Neg2 may be attributed to the GPX4 inhibition.
The compounds under investigation were initially dissolved in dimethyl sulfoxide (DMSO) to generate stock solutions with a concentration of 10 mM. HT1080 cells or other tested cells were seeded in 96‐well plates at a density of 3000–5000 cells well^−1 and cultured at 37 °C. Following a 24‐h incubation period, the tested compounds were added to the wells at various concentrations (the DMSO stock solutions of all the tested compounds were diluted with culture medium to obtain the designated concentration containing a final concentration of DMSO less than 0.5% (v/v)). The cells were then cultured for an additional 48 or 72 h. Cell Counting Kit 8 (CCK‐8) assay was conducted to examine the effects of the tested compounds on cell viability, and the absorbance was measured at a wavelength of 450 nm. The IC50 values were determined utilizing GraphPad Prism software through nonlinear regression analysis. All experiments were independently repeated at least three times.

GPX4 [2] = target: T1, GPX4 (Homo sapiens, UniProt P36969); assay: GPX4 degradation by western blot in HT1080 cells; type: cell-based; parameters: determine the changes in the endogenous levels of GPX4 by western blot assay; endogenous in cells; host or cells: HT1080 fibrosarcoma cells, including siRNA-knockdown derivatives; conditions: HT1080 cells, 0.3 µM, 24 h (Figure 3A)
T1 sequence (P36969 1-170 isoform P36969-2): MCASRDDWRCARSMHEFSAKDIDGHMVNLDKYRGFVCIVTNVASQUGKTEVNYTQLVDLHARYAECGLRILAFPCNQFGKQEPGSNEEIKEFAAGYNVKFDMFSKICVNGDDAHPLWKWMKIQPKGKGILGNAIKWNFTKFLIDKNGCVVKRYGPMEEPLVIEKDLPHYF
Experimental: To evaluate the GPX4 degradation efficiency of the synthesized HSP70‐PROTACs GDAz‐1–14, we first selected ferroptosis‐sensitive HT1080 fibrosarcoma cells (highly‐expressing GPX4) treated with different concentrations (0.1, 0.3, 1, and 3 µM) of these chimeras to determine the changes in the endogenous levels of GPX4 by western blot assay after 24 h treatment. […] This finding underscores the crucial role of the linker in HSP70‐PROTAC‐mediated protein degradation. […] In the case of alkyl chain derivatives (GDAz‐6–10), elongating the length of the linker generally led to a decreased GPX4 degrading activity. […] Thus, GDAz‐3 was selected for further evaluation.
(§1) Cells were seeded at a density of 4 × 10^5 cells well^−1 in 6‐well plates and allowed to incubate overnight. Cells were incubated with the indicated treatments. Thereafter, the cells were collected and lysed with RIPA buffer containing serine protease and phosphatase inhibitors for 30 min on ice. Proteins were quantified by using a BCA protein assay kit (Beyotime). Subsequently, SDS‐PAGE sample loading buffer was added, and the mixture was heated in a 100 °C metal bath for 10 min to denature the proteins. Protein samples from each group were separated by SDS‐PAGE gel and transferred to a PVDF membrane. After blocking with 5% skim milk for 1 h at room temperature, primary antibodies (GPX4: abcam (#ab125066, 1:1000); Hsp70: abcam (#ab2787, 1:1000); CHIP: HUABIO (#ST7108, 1:1000); UpingBio Technology Co., Ltd. (BRD4, #YP‐Ab‐18034, 1:1000; BAG‐1, #YP‐Ab‐00575, 1:1000); GAPDH: Proteintech (#60004‐1‐Ig, 1:50 000)) were used and incubated at 4 °C overnight on a rotary shaker. After washing the membranes with TBST buffer five times, the membranes were incubated with a second antibody (Cell Signaling Technology, #7074S, 1:1000 and #7076S, 1:1000) at room temperature for 2 h. Ultimately, the membrane was washed five times, and the antibody‐protein complexes were visualized using an ECL luminescence reagent (Biosharp, Shanghai, China). The relative intensities of the bands were analyzed by ImageJ and normalized to a loading control.

BRD4 = target: T2, BRD4 (Homo sapiens, UniProt O60885); assay: BRD4 degradation by western blot in MOLT-4 cells; type: cell-based; conditions: 48 h
T2 construct: effectively degrading additional endogenous bromodomain‐containing protein 4 (BRD4) in cancer cells; endogenous in cells; host or cells: MOLT-4
Text: To expand beyond the GPX4 degradation, we next sought to investigate the potential of the HSP70 complex to facilitate the degradation of additional proteins. We selected oncoprotein bromodomain containing 4 (BRD4), a degradable protein that not only has been widely used as a model substrate for development of new technologies in the TPD field, but also serves as a validated therapeutic target for multiple cancers. We synthesized three heterobifunctional compounds (GDAz‐15–17) by conjugating the HSP70 binding moiety apoptozole to the well‐established BRD4 inhibitor (+)‐JQ‐1 (a potent, specific, and reversible BRD4 inhibitor extensively applied in TPD) via PEG linkers of varying lengths (Figure 8E; Scheme S6, Supporting Information). T lymphoblast MOLT‐4 cell line with BRD4 overexpression was selected for biological evaluation.
as §1, with “After washing the membranes with TBST buffer five times, the membranes were incubated with a second antibody (Cell Signaling Technology, #7074S, 1:1000 and #7076S, 1:1000) at room temperature for 2 h.” left out

GPX4 [3] = target: T1, GPX4; parameters: determine the changes in the endogenous levels of GPX4 by western blot assay; endogenous in cells; host or cells: HT1080 fibrosarcoma cells, including siRNA-knockdown derivatives; method as in PMID 39230973; conditions: cited from earlier work
HT1080 cells [4] = test system: HT1080 cells; parameters: method as in PMID 39230973; conditions: same experimental conditions, cited from earlier work
GPX4 [5] = target: T1, GPX4; assay: GPX4 degradation by western blot in 786-O cells; type: cell-based; parameters: endogenous in cells; host or cells: 786-O; conditions: up to 10 µM, 24 h; sentence reads 'neither ... nor ... induced any degradation effect' = no degradation
Text: As previously mentioned, drug resistance and limited application scope are the significant challenges of traditional PROTAC, due partly to CRBN/VHL mutations or low expression. In this study, we investigated whether the developed HSP70‐PROTAC could address these challenges. Specifically, we examined the developed HSP70‐PROTAC in scenarios where VHL‐ or CRBN‐based PROTACs are ineffective due to intrinsic or acquired resistance. Several previously reported representative GPX4‐targeting degraders, including dGPX4 (CRBN‐based PROTAC, Figure 1A), 8e (VHL‐based PROTAC, Figure 1B), and GDCNF‐11/2 (HSP90‐based HIM‐PROTAC, Figure 1C, the structure of the GDCNF‐11 derivative GDCNF‐2 was not shown) were selected as control agents.^[ [18], [23], [28] ^] […] The clear cell renal cell carcinoma (ccRCC) 786‐O cell line is a well‐established cancer cell model characterized by an intrinsic deficiency in VHL expression.^[ [43], [44], [45] ^] We also confirmed this characteristic through evaluating the VHL expression levels in several randomly selected cancer cell lines (Figure S10A, Supporting Information). We further selected 786‐O cells as a model to confirm whether HSP70‐PROTAC could be used in such cases as an alternative to VHL‐based degraders, because VHL‐based PROTACs cannot be used to treat kidney cancer with a mutation or deletion in the VHL gene.
as §1

For `COC(=O)c1ccc([C@@H]2c3[nH]c4ccccc4c3C[C@@H](C(=O)OC)N2C(=O)CCl)cc1` [RSL3], the “Ferroptosis selectivity (SI)” value (ferroptosis) is given as 3.1.

For `COc1ccc(-c2nc(-c3cc(C(F)(F)F)cc(C(F)(F)F)c3)n(Cc3ccc(C(N)=O)cc3)c2-c2ccc(OC)cc2)cc1` [Apoptozole, reference compound], the Kd (Hsc70) is given as 0.21 µM, the “Toxic effects during treatment” value (HT1080 xenograft tumor) is given as “serious toxic effects such as death” and the Kd (Hsp70) is given as 0.14 µM. For the same compound, the IC50 (HT1080 cells [1]) was 17 µM and the GPX4 degradation (GPX4 [2]) was “this degradation effect was not observed”.

For `COc1ccc(-c2nc(-c3cc(C(F)(F)F)cc(C(F)(F)F)c3)n(Cc3ccc(C(=O)NCCOCCOCCOCCOCCNC(=O)C[C@@H]4N=C(c5ccc(Cl)cc5)c5c(sc(C)c5C)-n5c(C)nnc54)cc3)c2-c2ccc(OC)cc2)cc1` [GDAz-17, (S)-4-((2-(3,5-bis(trifluoromethyl)phenyl)-4,5-bis(4-methoxyphenyl)-1H-imidazol-1-yl)methyl)-N-(1-(4-(4-chlorophenyl)-2,3,9-trimethyl-6H-thieno[3,2-f][1,2,4]triazolo[4,3-a][1,4]diazepin-6-yl)-2-oxo-6,9,12,15-tetraoxa-3-azaheptadecan-17-yl)benzamide], the BRD4 degradation (BRD4) was “effectively trigger BRD4 degradation”.

For `COc1c(C)cnc(Cn2cnc3c(NCCC4CCN(C(=O)Cn5cc(COc6ccc(N(C(=O)CCl)C(C(=O)NCCc7ccccc7)c7cccs7)cc6Cl)nn5)CC4)nc(N)nc32)c1C` (centres unmarked) [GDCNF-11], the “Onset of GPX4 protein degradation” value (GPX4 [3]) is given as “initiating GPX4 protein degradation after 12 h”, the IC50 (HT1080 cells [4]; read-out: IC50 (antiproliferative activity)) is given as 0.79 µM and the Ferroptosis selectivity index (HT1080 cells [4]) is given as “about 45 fold”. The “GPX4 degradation in 786-O cells” value (GPX4 [5]) was “induced any degradation effect”.
